Experimental findings from US9561212B2, “Hepatitis C virus inhibitors” (BRISTOL-MYERS SQUIBB COMPANY, priority 2012, dated 2017) are described below.

The assay deals with HCV 1b genotype. As to the kind of experiment: microbe, parasite or virus in culture. It is filed as cell-based, Hepatitis C virus. To be noted: for pEC50: read-out: Range: EC50 ranges against HCV 1b; for EC50: read-out: 1b (μM): EC50 (Effective 50% inhibitory concentration) against the HCV 1b genotype. How it is done: An HCV Replicon assay was utilized in the present disclosure, and was prepared, conducted and validated as described in commonly owned PCT/US2006/022197 and in O'Boyle et. al. Antimicrob Agents Chemother. 2005 April; 49(4):1346-53. Assay methods incorporating luciferase reporters have also been used as described (Apath.com).
HCV-neo replicon cells and replicon cells containing resistance substitutions in the NS5A region were used to test the currently described family of compounds.

Setting [1] is: Hepatitis C virus, HCV 1b replicon.

pEC50: −log10 of the molar value. Read-outs that look alike come from different tables or passages of the source.

As to `COC(=O)NC(C(=O)N1CCC[C@H]1c1nc2cc(-c3ccc(Oc4cccc5[nH]c([C@@H]6CCCN6C(=O)C(NC(=O)OC)C6CCOC7(CC7)C6)nc45)cc3)ccc2[nH]1)C1CCOC2(CC2)C1` (stereo partly drawn) [QC15, methyl (2-((2S)-2-(5-(4-((2-((2S)-1-(((methoxycarbonyl)amino)(4-oxaspiro[2.5]oct-7-yl)acetyl)pyrrolidin-2-yl)-1H-benzimidazol-4-yl)oxy)phenyl)-1H-benzimidazol-2-yl)pyrrolidin-1-yl)-1-(4-oxaspiro[2.5]oct-7-yl)-2-oxoethyl)carbamate], the pEC50 under setting [1] was 10.00 to 11.30.
As to `COC(=O)N[C@H](C(=O)N1[C@@H](C)CC[C@H]1c1ncc(-c2ccc(-c3ccc(-c4cnc([C@@H]5CC[C@H](C)N5C(=O)[C@@H](NC(=O)OC)[C@H]5C[C@@H](C)O[C@H](C6CC6)C5)[nH]4)cc3)cc2)[nH]1)[C@H]1C[C@@H](C)O[C@H](C2CC2)C1` [Example 9.4, dimethyl ((R,S,S,1S,1′S)-((2S,2′S,5S,5′S)-5,5′-(5,5′-([1,1′-biphenyl]-4,4′-diyl)bis(1H-imidazole-5,2-diyl))bis(2-methylpyrrolidine-5,1-diyl))bis(1-((2S,4S,6R)-2-cyclopropyl-6-methyltetrahydro-2H-pyran-4-yl)-2-oxoethane-2,1-diyl))dicarbamate], under setting [1], the EC50 came out at 0.0093 nM and the pEC50 is 10.00 to 11.30.
As to `COC(=O)N[C@H](C(=O)N1[C@@H](C)CC[C@H]1c1ncc(-c2ccc(-c3ccc(-c4cnc([C@@H]5CC[C@H](C)N5C(=O)[C@@H](NC(=O)OC)[C@H]5C[C@H](C)O[C@@H](C6CC6)C5)[nH]4)cc3)cc2)[nH]1)[C@H]1C[C@H](C)O[C@@H](C2CC2)C1` [Example 9.3, dimethyl ((S,R,S,1S,1′S)-((2S,2′S,5S,5′S)-5,5′-(5,5′-([1,1′-biphenyl]-4,4′-diyl)bis(1H-imidazole-5,2-diyl))bis(2-methylpyrrolidine-5,1-diyl))bis(1-((2R,4S,6S)-2-cyclopropyl-6-methyltetrahydro-2H-pyran-4-yl)-2-oxoethane-2,1-diyl))dicarbamate], the pEC50 under setting [1] is 10.00 to 11.30.
`COC(=O)NC(C(=O)N1CCCC1c1nc2cc(C#Cc3ccc4[nH]c(C5CCCN5C(=O)C(NC(=O)OC)C5CCOC6(CC6)C5)nc4c3)ccc2[nH]1)C1CCOC2(CC2)C1` [OL9, dimethyl (((2S,2′S)-2,2′-(5,5′-(ethyne-1,2-diyl)bis(1H-benzo[d]imidazole-5,2-diyl))bis(pyrrolidine-2,1-diyl))bis(2-oxo-1-(4-oxaspiro[2.5]octan-7-ypethane-2,1-diyl))dicarbamate]: under “HCV 1b replicon”, the pEC50 is 9.05 to 10.00.
As for `COC(=O)NC(C(=O)N1[C@@H](C)CC[C@H]1c1ncc(-c2ccc(-c3ccc(-c4cnc([C@@H]5CC[C@H](C)N5C(=O)C(NC(=O)OC)C5CCOC6(CCC6)C5)[nH]4)cc3)cc2)[nH]1)C1CCOC2(CCC2)C1` (single isomer, unassigned) [Example 2.3], the EC50 under setting [1] is 0.00488 nM.
On to `COC(=O)NC(C(=O)N1[C@@H]2C[C@@H]2C[C@H]1c1nc(-c2ccc(-c3ccc4c(c3)CCc3[nH]c([C@@H]5C[C@H]6C[C@H]6N5C(=O)C(NC(=O)OC)C5CCOC6(CC6)C5)nc3-4)cc2)c[nH]1)C1CCOC2(CC2)C1` (stereo partly drawn) [QC11, methyl (2-((1R,3S,5R)-3-(4-(4-(2-((1R,3S,5R)-2-(((methoxycarbonyl)amino)(4-oxaspiro[2.5]oct-7-yl)acetyl)-2-azabicyclo[3.1.0]hex-3-yl)-4,5-dihydro-3H-naphtho[1,2-d]imidazol-7-yl)phenyl)-1H-imidazol-2-yl)-2-azabicyclo[3.1.0]hex-2-yl)-1-(4-oxaspiro[2.5]oct-7-yl)-2-oxoethyl)carbamate], for which the pEC50 under setting [1] was 10.00 to 11.30.
`COC(=O)NC(C(=O)N1[C@@H]2C[C@@H]2C[C@H]1c1nc(-c2ccc(-c3ccc(-c4c[nH]c([C@@H]5C[C@H]6C[C@H]6N5C(=O)C(NC(=O)OC)C5C[C@@H]6[C@H](C5)C6(F)F)n4)cc3)cc2)c[nH]1)C1C[C@@H]2[C@H](C1)C2(F)F` (single isomer, unassigned; diastereomer 2) [QC2.2]: the pEC50 (HCV 1b replicon) is 10.00 to 11.30.
As for `COC(=O)NC(C(=O)N1[C@@H](C)CC[C@H]1c1ncc(-c2ccc(-c3ccc(-c4cnc([C@@H]5CC[C@H](C)N5C(=O)C(NC(=O)OC)C5CCOC6(CCCC6)C5)[nH]4)cc3)cc2)[nH]1)C1CCOC2(CCCC2)C1` (single isomer, unassigned) [Example 3.1], the pEC50 (HCV 1b replicon) was 6.15 to 9.05.
In the case of `COC(=O)NC(C(=O)N1CCC[C@H]1c1nc(-c2ccc(-c3c[nH]c([C@@H]4CCCN4C(=O)C(NC(=O)OC)C4CCOC5(CC5)C4)n3)cc2)c[nH]1)C1CCOC2(CC2)C1` (stereo partly drawn) [Example QC14, dimethyl (benzene-1,4-diylbis(1H-imidazole-4,2-diyl(2S)pyrrolidine-2,1-diyl(1-(4-oxaspiro[2.5]oct-7-yl)-2-oxoethane-2,1-diyl)))biscarbamate], under setting [1], the EC50 turned out to be 14.5 nM and the pEC50 is 6.15 to 9.05.
As to `COC(=O)N[C@H](C(=O)N1[C@@H](CO)CC[C@H]1c1ncc(-c2ccc(-c3ccc(-c4cnc([C@@H]5CC[C@H](CO)N5C(=O)[C@@H](NC(=O)OC)C5C[C@@H](C)O[C@H](C)C5)[nH]4)cc3)cc2)[nH]1)C1C[C@@H](C)O[C@H](C)C1` (single isomer, unassigned) [Example 11], the pEC50 under setting [1] was 6.15 to 9.05.
Regarding `COC(=O)NC(C(=O)N1[C@@H](C)CC[C@H]1c1ncc(-c2ccc(-c3ccc(-c4cnc([C@@H]5CC[C@H](C)N5C(=O)C(NC(=O)OC)C5CC6(CC6)C5)[nH]4)cc3)cc2)[nH]1)C1CC2(CC2)C1` (stereo partly shown) [Example 5.2], under setting [1], the EC50 came out at 9.07 nM and the negative-log EC50 (pEC50) was 6.15 to 9.05.
“methyl (2-((2S)-2-(7-(2-((2S)-1-(((methoxycarbonyl)amino)(4-oxaspiro[2.5]oct-7-yl)acetyl)-2-pyrrolidinyl)-1H-benzimidazol-5-yl)-4,5-dihydro-1H-naphtho[1,2-d]imidazol-2-yl)-1-pyrrolidinyl)-1-(4-oxaspiro[2.5]oct-7-yl)-2-oxoethyl)carbamate [QC12]”: the pEC50 (HCV 1b replicon) was 9.05 to 10.00.
With `COC(=O)NC(C(=O)N1[C@@H]2C[C@@H]2C[C@H]1c1ncc(-c2ccc(-c3ccc(-c4cnc([C@@H]5C[C@H]6C[C@H]6N5C(=O)[C@@H](NC(=O)OC)C(C)C)[nH]4)cc3)cc2)[nH]1)C1CCOC2(CC2)C1` (stereo partly drawn) [OL3, methyl ((2S)-1-((1R,3S,5R)-3-(5-(4′-(2-((1R,3S,5R)-2-(((methoxycarbonyl)amino)(4-oxaspiro[2.5]oct-7-yl)acetyl)-2-azabicyclo[3.1.0]hex-3-yl)-1H-imidazol-5-yl)biphenyl-4-yl)-1H-imidazol-2-yl)-2-azabicyclo[3.1.0]hex-2-yl)-3-methyl-1-oxobutan-2-yl)carbamate], under setting [1], the pEC50 is 10.00 to 11.30.
On to `COC(=O)N[C@H](C(=O)N1[C@@H](CF)CC[C@H]1c1ncc(-c2ccc(-c3ccc(-c4cnc([C@@H]5CC[C@H](CF)N5C(=O)[C@@H](NC(=O)OC)[C@H]5CCOC6(CC6)C5)[nH]4)cc3)cc2)[nH]1)[C@H]1CCOC2(CC2)C1` [Example 8], for which the pEC50 under setting [1] is 10.00 to 11.30.
On to `COC(=O)NC(C(=O)N1CCOCC1c1ncc(-c2ccc(-c3ccc(-c4cnc(C5COCCN5C(=O)C(NC(=O)OC)C5CCOC6(CC6)C5)[nH]4)cc3)cc2)[nH]1)C1CCOC2(CC2)C1` [OL8, dimethyl (((3R,3′R)-3,3′-(5,5'-([1,1′-biphenyl]-4,4′-diyl)bis(1H-imidazole-5,2-diyl))bis(morpholine-4,3-diyl))bis(2-oxo-1-(4-oxaspiro[2.5]octan-7-yl)ethane-2,1 diyl))dicarbamate], for which the pEC50 is 9.05 to 10.00.
For the molecule `COC(=O)NC(C(=O)N1C(c2nc(-c3ccc(-c4ccc(-c5c[nH]c([C@@H]6CC[C@H](C)N6C(=O)C(NC(=O)OC)C6CCC7(CC7)OC6)n5)cc4)cc3)c[nH]2)CC[C@@H]1C)C1CCC2(CC2)OC1` (stereo partly shown) [Example 1.1], the pEC50 under setting [1] was 10.00 to 11.30.
With `C#C[C@@H]1CC[C@@H](c2ncc(-c3ccc(-c4ccc(-c5cnc([C@@H]6CC[C@@H](C#C)N6C(=O)[C@@H](NC(=O)OC)C6C[C@@H](C)O[C@H](C)C6)[nH]5)cc4)cc3)[nH]2)N1C(=O)[C@@H](NC(=O)OC)C1C[C@@H](C)O[C@H](C)C1` (stereo partly drawn) [Example 10.1, dimethyl (4,4′-biphenyldiylbis(1H-imidazole-4,2-diyl((2S,5S)-5-ethynyl-2,1-pyrrolidinediyl)((1S)-1-((2R,6R)-2,6-dimethyltetrahydro-2H-pyran-4-yl)-2-oxo-2,1-ethanediyl)))biscarbamate], under setting [1], the EC50 is 0.263 nM and the negative-log EC50 (pEC50) is 9.05 to 10.00.
As for `COC(=O)N[C@H](C(=O)N1[C@@H](C)CC[C@H]1c1ncc(-c2ccc(-c3ccc(-c4cnc([C@@H]5CC[C@H](C)N5C(=O)[C@@H](NC(=O)OC)C5CC6(COC6)C5)[nH]4)cc3)cc2)[nH]1)C1CC2(COC2)C1` (stereo partly drawn) [Example 13, dimethyl (4,4′-biphenyldiylbis(1H-imidazole-5,2-diyl((2S,5S)-5-methyl-2,1-pyrrolidinediyl)((1S)-1-(2-oxaspiro[3.3]hept-6-yl)-2-oxo-2,1-ethanediyl)))biscarbamate], the pEC50 under setting [1] was 10.00 to 11.30.
In the case of `COC(=O)NC(C(=O)N1[C@@H](C)CC[C@H]1c1ncc(-c2ccc(-c3ccc(-c4cnc([C@@H]5CC[C@H](C)N5C(=O)C(NC(=O)OC)C5CCOC6(CCCC6)C5)[nH]4)cc3)cc2)[nH]1)C1CCOC2(CCCC2)C1` (single isomer, unassigned) [Example 3.3], for the setting “HCV 1b replicon”, the pEC50 is 10.00 to 11.30. Further, the EC50 under setting [1] came to 0.00504 nM.
Turning to `COC(=O)N[C@H](C(=O)N1[C@@H]2C[C@@H]2C[C@H]1c1nc(-c2ccc(-c3ccc(-c4c[nH]c([C@@H]5C[C@H]6C[C@H]6N5C(=O)[C@@H](NC(=O)OC)C5CCC(=O)CC5)n4)cc3)cc2)c[nH]1)C1CCC(=O)CC1` [Example OL10, dimethyl (4,4′-biphenyldiylbis(1H-imidazole-4,2-diyl(1R,3S,5R)-2-azabicyclo[3.1.0]hexane-3,2-diyl((1S)-2-oxo-1-(4-oxocyclohexyl)-2,1-ethanediyl)))biscarbamate], under setting [1], the pEC50 was 9.05 to 10.00.
